Source: ChEMBL document CHEMBL5620358, “Proteolysis-targeting chimeras in biotherapeutics: Current trends and future applications” (Eur J Med Chem, 2023)
Blank lines part the entries; values can stand above or below the compound they belong to.

Key:
[1] = Antiproliferative activity against human TNBC cells assessed as inhibition of cell growth; type: functional, Breast carcinoma cell
MCF7 = experiment: Cytotoxicity against human MCF7 cells assessed as inhibition of cell proliferation measured after 72 hrs by MTT assay; type: functional, cell-based; details: MCF7, 72 h
[2] = target: von Hippel-Lindau disease tumor suppressor/Haloalkane dehalogenase (Rhodococcus sp) (UniProt P40337+P0A3G3); experiment: PROTAC activity at VHL/HaloTag7-GFP fusion protein (unknown origin) assessed as induction of fusion protein degradation relative to control
[3] = target: von Hippel-Lindau disease tumor suppressor/Haloalkane dehalogenase (Rhodococcus sp, UniProt P40337+P0A3G3); experiment: PROTAC activity at VHL/HaloTag7-GFP fusion protein (unknown origin) assessed as induction of fusion protein degradation
[4] = target: Protein cereblon/Macrophage migration inhibitory factor (Homo sapiens, UniProt P14174+Q96SW2); experiment: PROTAC activity at E3 ubiquitin ligase/MIF in human A549 cells assessed as induction of MIF degradation; type: cell-based
[5] = target: Protein cereblon/Bromodomain-containing protein 9 (Homo sapiens, UniProt Q9H8M2+Q96SW2); experiment: PROTAC activity at CRBN/BRD9 (unknown origin) assessed as induction of BRD9 degradation; type: protein assay
[6] = target: T1, Protein cereblon/Cyclin-dependent kinase 9 (Homo sapiens) (UniProt P50750+Q96SW2); experiment: PROTAC activity at E3 ubiquitin ligase/CDK9 in human MOLT-4 cells assessed as induction of CDK9 degradation at 250 nM by immunoblot analysis; type: cell-based
[7] = target: T1, Protein cereblon/Cyclin-dependent kinase 9 (Homo sapiens); experiment: PROTAC activity at E3 ubiquitin ligase/CDK9 in human HCT-116 cells assessed as induction of CDK9 degradation at 20 uM measured after 6 hrs by western blot analysis; type: cell-based
[8] = Induction of AR degradation in castrated mouse model xenografted with human VCaP cells at 1 mg/kg; type: functional

Structure (SMILES): Nc1c(C(=O)Nc2ccc(F)cc2)sc2nc(-c3cccs3)cc(C(F)(F)F)c12
inhibition (INH) [1]: 47.8%

Structure (SMILES): Nc1cccc2c1C(=O)N(C1CCC(=O)NC1=O)C2=O (centres undefined) [POMALIDOMIDE]
IC50 (MCF7): 17000 nM

Activity [2]: 90%
DC50 [3]: 19 nM
Structure (SMILES): Cc1ncsc1-c1ccc(CNC(=O)[C@@H]2C[C@@H](O)CN2C(=O)[C@H](C(C)C)N2Cc3ccccc3C2=O)c(OCCOCCOCCOCCCCCCCl)c1

Structure (SMILES): O=C1CCC(N2C(=O)c3cccc(NCCCCCCCC(=O)Nc4ccc(N5Cc6ccc(O)cc6OC5=O)cc4)c3C2=O)C(=O)N1 (centres undefined)
DC50 [4]: 100 nM

DC50 [5]: 2.7 nM
Structure (SMILES): COc1cc(-c2cn(C)c(=O)c(C)c2C)cc(OC)c1CN1CC[C@H](N2CCN(c3ccc(N[C@H]4CCC(=O)NC4=O)cc3F)CC2)C(F)(F)C1 [SENDEGOBRESIB]

Activity [6]: 99%
Structure (SMILES): CC(C)(C)c1cnc(CSc2cnc(NC(=O)C3CCN(CC(=O)NCCOCCOCCOCCNc4cccc5c4C(=O)N(C4CCC(=O)NC4=O)C5=O)CC3)s2)o1 (centres undefined)

Activity [7]: 65%
Structure (SMILES): O=C1CCC(N2C(=O)c3cccc(OCCCCCOc4ccc(CC(=O)Nc5cc(C6CCC6)[nH]n5)cc4)c3C2=O)C(=O)N1 (centres undefined)

Structure (SMILES): N#Cc1ccc(O[C@H]2CC[C@H](NC(=O)c3ccc(N4CCC(CN5CCN(c6cc7c(cc6F)C(=O)N(C6CCC(=O)NC6=O)C7=O)CC5)CC4)nn3)CC2)cc1Cl (some centres undefined) [BAVDEGALUTAMIDE]
Activity [8]: 90%
